Reference: PMC4744035, “In Vivo, In Vitro, and In Silico Characterization of Peptoids as Antimicrobial Agents” (PLoS ONE, 2016)
≈ marks a conversion by molar mass, not a printed value. Square brackets hold non-standard residues; d marks the D form. Peptide text beside a SMILES is read from it. Nspe = C[C@H](NCC(=O)O)c1ccccc1; Nphe = O=C(O)CNCc1ccccc1; Nlys = NCCCCNCC(=O)O

Legend:
[1] = test system: NIH 3T3 cells; test: Metabolic activity, MTS assay; type: cell-based, mouse
Method in brief: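 Mouse NIH 3T3 fibroblast monolayers, about 5000 cells per well, washed and exposed to serially diluted peptoids in Hank's balanced salt solution. Metabolic activity read by MTS; average of six replicate trials.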

[2] = test system: E. faecalis F43559 (VRE); test: microbe, parasite or virus in culture; details: F43559 (VRE)
Method in brief: (§1)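 Agents were diluted serially at 10x in acetic acid/BSA, added to Mueller Hinton medium, then inoculated with bacteria at 2–7 x 10^5 CFU/mL. Plates were incubated overnight at 37°C and scored for growth.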

[3] = test system: E. coli 64771 (ESBL); test: microbe, parasite or virus in culture; details: 64771 (ESBL)
Method in brief: as §1

[4] = test system: P. maltophilia ATCC13637; test: microbe, parasite or virus in culture; details: ATCC13637
Method in brief: as §1

[5] = test system: P. aeruginosa H103 (wild type); test: microbe, parasite or virus in culture; details: H103 (wild type)
Method in brief: as §1

[6] = test system: P. aeruginosa 198 (MDR); test: microbe, parasite or virus in culture; details: 198 (MDR)
Method in brief: as §1

[7] = test system: E. faecium T62764 (VRE); test: microbe, parasite or virus in culture; details: T62764 (VRE)
Method in brief: as §1

[8] = test system: P. aeruginosa 9 (MDR); test: microbe, parasite or virus in culture; details: 9 (MDR)
Method in brief: as §1

[9] = test system: P. aeruginosa H1027 (MDR); test: microbe, parasite or virus in culture; details: H1027 (MDR)
Method in brief: as §1

[10] = test system: E. faecium mic80 (VRE); test: microbe, parasite or virus in culture; details: mic80 (VRE)
Method in brief: as §1

[11] = test system: P. aeruginosa LES400 (MDR); test: microbe, parasite or virus in culture; details: LES400 (MDR)
Method in brief: as §1

[12] = test system: S. aureus ATCC25923; test: microbe, parasite or virus in culture; details: ATCC25923
Method in brief: as §1

[13] = test system: K. pneumonia 61962 (ESBL); test: microbe, parasite or virus in culture
Method in brief: as §1

[14] = test system: E. coli 63103 (ESBL); test: microbe, parasite or virus in culture; details: 63103 (ESBL)
Method in brief: as §1

[15] = test system: E. cloacae 218R Class C β-lactamase; test: microbe, parasite or virus in culture; details: 218R Class C β-lactamase
Method in brief: as §1

[16] = test system: E. faecalis W61950 (VRE); test: microbe, parasite or virus in culture; details: W61950 (VRE)
Method in brief: as §1

[17] = test system: K. pneumonia 63575 (ESBL); test: microbe, parasite or virus in culture
Method in brief: as §1

[18] = test system: S. aureus C623 (MRSA); test: microbe, parasite or virus in culture; details: C623
Method in brief: as §1

[19] = test system: P. aeruginosa 213 (MDR); test: microbe, parasite or virus in culture; details: 213 (MDR)
Method in brief: as §1

[20] = test system: P. aeruginosa H1030 (MDR); test: microbe, parasite or virus in culture; details: P. aeruginosa H1030 (MDR)
Method in brief: as §1

[21] = test system: E. faecalis ATCC29212; test: microbe, parasite or virus in culture; details: ATCC29212
Method in brief: as §1

[22] = test system: E. coli ATCC 35218; type: cell-based
Method in brief: (§2)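 MICs determined by 2:1 serial broth microdilution in cation-adjusted Mueller-Hinton broth per CLSI M7-A6, using inoculum at 1 x 10^6 CFU/mL mixed 1:1 with peptoid solution. Three independent replicates, each with two parallel trials.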

[23] = test system: B. subtilis ATCC 6633; type: cell-based
Method in brief: as §2

[24] = test system: erythrocytes; test: Hemolytic activity (HD10/HD50); type: cell-based
Excerpt: Table 1 Characteristics of antimicrobial peptoids, screened for activity against B. subtilis and E. coli bacterial strains. | column: HD10 / HD50

Structure (SMILES) | ID50 (inhibitory dose, metabolic activity) [1] [µM] | MIC [2] [µg/mL] | MIC [3] [µg/mL] | MIC [4] [µg/mL] | MIC [5] [µg/mL] | MIC [6] [µg/mL] | MIC [7] [µg/mL] | MIC [8] [µg/mL] | MIC [9] [µg/mL] | MIC [10] [µg/mL] | MIC [11] [µg/mL] | MIC [12] [µg/mL] | MIC [13] [µg/mL] | MIC [14] [µg/mL] | MIC [15] [µg/mL] | MIC [16] [µg/mL] | MIC [17] [µg/mL] | MIC [18] [µg/mL] | MIC [19] [µg/mL] | MIC [20] [µg/mL] | further results
CC(C)[C@H](C)N(CC(N)=O)C(=O)CN(C(=O)CN(CCCCN)C(=O)CN(C(=O)CN(C(=O)CN(CCCCN)C(=O)CN(C(=O)CN(C(=O)CN(CCCCN)C(=O)CN(C(=O)CN(C(=O)CNCCCCN)[C@@H](C)C(C)C)[C@@H](C)C(C)C)[C@@H](C)C(C)C)[C@@H](C)C(C)C)[C@@H](C)C(C)C)[C@@H](C)C(C)C)[C@@H](C)C(C)C [Peptoid 1-Nsdpall, H-(NLys-Nsdp-Nsdp)4-NH2] | 64 | 128 (≈ 82.7 µM) | 16 (≈ 10.3 µM) | 1 (≈ 0.646 µM) | 32 (≈ 20.7 µM) | 128 (≈ 82.7 µM) | 4 (≈ 2.59 µM) | 256 (≈ 165 µM) | 4 (≈ 2.59 µM) | 16 (≈ 10.3 µM) | 32 (≈ 20.7 µM) | 16 (≈ 10.3 µM) | 128 (≈ 82.7 µM) | 64 (≈ 41.4 µM) | 32 (≈ 20.7 µM) | 128 (≈ 82.7 µM) | 128 (≈ 82.7 µM) | 8 (≈ 5.17 µM) | 64 (≈ 41.4 µM) | 32 (≈ 20.7 µM) | MIC [21]: 64 µg/mL (≈ 41.4 µM); MIC E. coli [22]: 25 µM (≈ 38.7 µg/mL); MIC B. subtilis [23]: 0.78 µM (≈ 1.21 µg/mL); HD10 (hemolytic activity) [24]: >200 / >200; HD50 (hemolytic activity) [24]: >200 / >200
C[C@@H](c1ccccc1)N(CC(=O)N(CC(=O)N(CCCCN)CC(=O)N(CC(=O)N(CC(=O)N(CCCCN)CC(=O)N(CC(=O)N(CC(=O)N(CCCCN)CC(=O)N(CC(=O)N(CC(N)=O)Cc1ccccc1)Cc1ccccc1)Cc1ccccc1)Cc1ccccc1)Cc1ccccc1)Cc1ccccc1)Cc1ccccc1)C(=O)CNCCCCN [Peptoid 1ach-Nspe2, H-(NLys-Nspe-Npm)- (NLys-Npm-Npm)3-NH2] (H-[Nlys][Nspe][Nphe][Nlys][Nphe][Nphe][Nlys][Nphe][Nphe][Nlys][Nphe][Nphe]-NH2) | 11 | 16 (≈ 9.3 µM) | 8 (≈ 4.65 µM) | 2 (≈ 1.16 µM) | 4 (≈ 2.32 µM) | 8 (≈ 4.65 µM) | 2 (≈ 1.16 µM) | 64 (≈ 37.2 µM) | 2 (≈ 1.16 µM) | 4 (≈ 2.32 µM) | 4 (≈ 2.32 µM) | 4 (≈ 2.32 µM) | 64 (≈ 37.2 µM) | 16 (≈ 9.3 µM) | 16 (≈ 9.3 µM) | 32 (≈ 18.6 µM) | 32 (≈ 18.6 µM) | 4 (≈ 2.32 µM) | 8 (≈ 4.65 µM) | 32 (≈ 18.6 µM) | MIC [21]: 16 µg/mL (≈ 9.3 µM); MIC E. coli [22]: 6.3 µM (≈ 10.8 µg/mL); MIC B. subtilis [23]: 0.78 µM (≈ 1.34 µg/mL); HD10 (hemolytic activity) [24]: 160; HD50 (hemolytic activity) [24]: > 200
